According to patent EP0428132A1, “Pradimicin derivatives” (Bristol-Myers Squibb Company, priority 1989, dated 1991):
In brackets after ≈: the same amount, converted by molar mass.

What was measured:
[1] = test system: FA21436; assay: In vitro antifungal activity, serial agar dilution method (Table 1); type: cell-based, Asoergukkys flavus; conditions: 40 h, pH 7, read-out: MIC, Asoergukkys flavus FA21436
Experimental: (§1) The inoculum size was adjusted to 10⁶ cells/ml, and a volume of approximately 0.003 ml of fungal suspension was applied to the surface of the antibiotic containing agar plates with a multiinoculator. After incubation, the lowest concentration of antibiotic causing virtually complete inhibition of fungal growth was determined as the minimum inhibitory concentration (MIC). Table 1. [table]

[2] = test system: Aspergillus fumigatus IAM2034; assay: as above; type: cell-based; conditions: Sabouraud dextrose agar (pH 7.0), 28°C for 40 hours; for MIC: Aspergillus fumigatus, IAM2034
Experimental: as §1

[3] = test system: Aspergillus fumigatus IAM2530; assay: as above; type: cell-based; conditions: Aspergillus fumigatus, IAM2530; Sabouraud dextrose agar (pH 7.0); 28°C for 40 hours
Experimental: as §1

[4] = test system: Blastomyces dermatidis D40; assay: as above; type: cell-based; conditions: for MIC: Blastomyces, D40, 40 h, pH 7, read-out: MIC, Blastomyces dermatidis D40
Experimental: as §1

[5] = test system: Candida albicans A9540; assay: as above; type: cell-based; conditions: Candida albicans, A9540; Sabouraud dextrose agar (pH 7.0); 28°C for 40 hours
Experimental: as §1

[6] = test system: Candida albicans IAM4888; assay: as above; type: cell-based; conditions: Candida albicans, IAM4888; Sabouraud dextrose agar (pH 7.0); 28°C for 40 hours
Experimental: as §1

[7] = test system: Cryptococcus neoformans D49; assay: as above; type: cell-based; conditions: Cryptococcus neoformans, D49, 40 h, pH 7, read-out: MIC, Cryptococcus neoformans D49
Experimental: as §1

[8] = test system: Cryptococcus neoformans IAM4514; assay: as above; type: cell-based; conditions: Cryptococcus neoformans, IAM4514; Sabouraud dextrose agar (pH 7.0); 28°C for 40 hours
Experimental: as §1

[9] = test system: Fusarium moniliforme A2284; assay: as above; type: cell-based; conditions: Fusarium verticillioides, A2284; Sabouraud dextrose agar (pH 7.0); 28°C for 40 hours
Experimental: as §1

[10] = test system: Mucor spinosus IFO5317; assay: as above; type: cell-based; conditions: Sabouraud dextrose agar (pH 7.0), 28°C for 40 hours; for MIC: Mucor spinosus, IFO5317; for Partial Inhibition, Mucor spinosus IFO5317: value in parentheses = Partial Inhibition
Experimental: as §1

[11] = test system: Petriellidium boydii IFO8078; assay: as above; type: cell-based; conditions: Scedosporium boydii, IFO8078; Sabouraud dextrose agar (pH 7.0); 28°C for 40 hours
Experimental: as §1

[12] = test system: Sprotricosis schenckii IFO8158; assay: as above; type: cell-based; conditions: for MIC: 40 h, pH 7, read-out: MIC, Sprotricosis schenckii IFO8158
Experimental: as §1

[13] = test system: Trichophyton mentagrophytes #4329; assay: as above; type: cell-based; conditions: Trichophyton mentagrophytes; Sabouraud dextrose agar (pH 7.0); 28°C for 40 hours
Experimental: as §1

[14] = test system: Trichophyton mentagrophytes D155; assay: as above; type: cell-based; conditions: Trichophyton mentagrophytes, D155; Sabouraud dextrose agar (pH 7.0); 28°C for 40 hours
Experimental: as §1

[15] = test system: Candida albicans A9540; assay: Intravenous Candida albicans infection mouse model, Table 2 part A; type: in vivo; conditions: drug administered once just after infection, 20 days after fungal challenge, method of Litchfield and Wilcoxon, male ICR mice
Experimental: Several compounds were also evaluated in an intravenous Candida albicans […] infection mouse model. The test organism was suspended in saline approximately 10 times the median lethal dose of the fungus (10⁶ cells/mouse) were used to infect intravenously male ICR mice weighing 20 to 24 g. Groups of five mice at each dose level were given the test compounds intravenously or intramuscularly. The 50% protective dose (PD₅₀) was calculated from survival rates recorded 20 or 21 days after the fungal challenge. Control animals died between 7 to 15 days.

[16] = physchem
Experimental: The sample (3 ∼ 3.5 mg) was suspended in 1 ml of PBS(-) or PBS(+), sonicated at 30°C for 10 minutes, and allowed to stand at room temperature for 2 hours. The resulting solution or suspension was centrifuged at 12,000 rpm for 10 minutes. The supernatant (pH 6.7 ∼ 7.2) was diluted (5 x or 50 x) with 0.01N NaOH (pH ca. 11.5) and its UV absorption at 500 nm was measured. The solubility was assessed by the absorption coefficient value with reference to the standard. […] The zwitterionic form sample was used for the solubility test as it is. The hydrochloride salt sample (3 mg) was dissolved in 3 ml of distilled water and neutralized with 0.01N NaOH, and then the solution was lyophilized to give a test sample.
Dulbecco's phosphate buffered saline (PBS) solution was used. Preparation of PBS(-) solution: One PBS(-) tablet (Flow Laboratories, Cat. No. 28-103-05) was dissolved in 100 ml distilled water, and the solution was autoclaved for 10 minutes at 115°C. This solution contains 0.2 g/L of KCl, 0.2 g/L of KH₂PO₄, 8 g/L of NaCl, and 1.15 g/L of Na₂HPO₄. Preparation of PBS(+) solution: One PBS(-) tablet was dissolved in 80 ml distilled water; 10 mg of CaCl₂ was dissolved in 10 ml distilled water; 10 mg of MgCl₂, 6H₂O was dissolved in 10 ml distilled water. These solutions were separately autoclaved, as described above, and mixed when cooled.

[17] = test system: Candida albicans A25578; assay: In vitro antifungal activity, serial agar dilution method (Table 1a); type: cell-based; conditions: A25578, YM agar (pH 7.0, Difco), 30°C for 2 days (yeast) or 4 days (filamentous fungi), read-out: MICs, Candida albicans A25578
Experimental: (§2) The inoculum size was adjusted to 10⁶ cells/ml, and a volume of approximately 0.003 ml of fungal suspension was applied to the surface of the antibiotic containing agar plates with a multiinoculator. After incubation, the lowest concentration of antibiotic causing virtually complete inhibition of fungal growth was determined as the minimum inhibitory concentration (MIC).

[18] = test system: Candida albicans A9540; assay: as above; type: cell-based; conditions: A9540, YM agar (pH 7.0, Difco), 30°C for 2 days (yeast) or 4 days (filamentous fungi), read-out: MICs, Candida albicans A9540
Experimental: as §2

[19] = test system: Candida paratropicalis A25825; assay: as above; type: cell-based; conditions: YM agar (pH 7.0, Difco); 30°C for 2 days (yeast) or 4 days (filamentous fungi); read-out: MICs, Candida paratropicalis A25825
Experimental: as §2

[20] = test system: Candida pseudotropicalis A25802; assay: as above; type: cell-based; conditions: Kluyveromyces marxianus, YM agar (pH 7.0, Difco), 30°C for 2 days (yeast) or 4 days (filamentous fungi), read-out: MICs, Candida pseudotropicalis A25802
Experimental: as §2

[21] = test system: Candida tropicalis A25809; assay: as above; type: cell-based; conditions: YM agar (pH 7.0, Difco), 30°C for 2 days (yeast) or 4 days (filamentous fungi), read-out: MICs, Candida tropicalis A25809
Experimental: as §2

[22] = test system: Candida tropicalis A25812; assay: as above; type: cell-based; conditions: A25812, YM agar (pH 7.0, Difco), 30°C for 2 days (yeast) or 4 days (filamentous fungi), read-out: MICs, Candida tropicalis A25812
Experimental: as §2

[23] = test system: Cryptococcus neoformans A15053; assay: as above; type: cell-based; conditions: A15053, YM agar (pH 7.0, Difco), 30°C for 2 days (yeast) or 4 days (filamentous fungi), read-out: MICs, Cryptococcus neoformans A15053
Experimental: as §2

[24] = test system: Microsporum canis WW10218; assay: as above; type: cell-based; conditions: WW10218, pH 7, read-out: MICs, Microsporum canis WW10218
Experimental: as §2

[25] = test system: Microsporum gypseum WW1107; assay: as above; type: cell-based; conditions: Nannizzia gypsea, YM agar (pH 7.0, Difco), 30°C for 2 days (yeast) or 4 days (filamentous fungi), read-out: MICs, Microsporum gypseum WW1107
Experimental: as §2

[26] = test system: Saccharomyces cerevisiae A25803; assay: as above; type: cell-based; conditions: YM agar (pH 7.0, Difco), 30°C for 2 days (yeast) or 4 days (filamentous fungi), read-out: MICs, Saccharomyces cerevisiae A25803
Experimental: as §2

[27] = test system: Trichophyton mentagrophytes A26771; assay: as above; type: cell-based; conditions: A26771, YM agar (pH 7.0, Difco), 30°C for 2 days (yeast) or 4 days (filamentous fungi), read-out: MICs, Trichophyton mentagrophytes A26771
Experimental: as §2

[28] = test system: Trichophyton rubrum A26761; assay: as above; type: cell-based; conditions: A26761, pH 7, read-out: MICs, Trichophyton rubrum A26761
Experimental: as §2

[29] = Water solubility, protocol I (PBS, HPLC); type: physicochemical; conditions: Method I: PBS without CaCl₂ and MgCl₂.6H₂O
Experimental: The supernatant (2 µL) was analyzed by HPLC using the conditions specified for each compound in the Experimental Section. […] When not soluble, an additional amount of PBS (x µL) was added, sonicated, and centrifuged. When visibly soluble, the solution (2 µL) was injected to HPLC and the peak area was used for the known concentration of the sample.

[30] = value in parentheses = Partial Inhibition, Sabouraud dextrose agar (pH 7.0), 28°C for 40 hours

| Compound | MIC [1] | MIC [2] | MIC [3] | MIC [4] | MIC [5] | MIC [6] | MIC [7] | MIC [8] | MIC [9] | MIC [10] | Partial Inhibition, Mucor spinosus IFO5317 [10] | MIC [12] | MIC [13] | MIC [14] | PD₅₀ [15] | solubility at 2 h ([16]; Method II (+): PBS(+)) | MIC [17] | MIC [18] | MIC [19] | MIC [20] | further results |
| --- | --- | --- | --- | --- | --- | --- | --- | --- | --- | --- | --- | --- | --- | --- | --- | --- | --- | --- | --- | --- | --- |
| COc1cc(O)c2c(c1)C(=O)c1c(cc3c(c1O)-c1c(cc(C)c(C(=O)N[C@H](C)C(=O)O)c1O)[C@H](O[C@@H]1O[C@H](C)[C@H](N(C)CC(=O)O)[C@H](O[C@@H]4OC[C@@H](O)[C@H](O)[C@H]4O)[C@H]1O)[C@H]3O)C2=O [Ex. 1, N-(carboxymethyl) pradimicin A] | > 100 µg/mL | > 100 µg/mL | 100 µg/mL (≈ 111 µM) | > 100 µg/mL | 50 µg/mL (≈ 55.6 µM) | 50 µg/mL (≈ 55.6 µM) | 25 µg/mL (≈ 27.8 µM) | 12.5 µg/mL (≈ 13.9 µM) | > 100 µg/mL | > 100 µg/mL | >100.0 (100.0) µg/ml | > 100 µg/mL | > 100 µg/mL | > 100 µg/mL | 45 mg/kg | > 31000 µg/mL | – | – | – | – | Partial Inhibition, Aspergillus fumigatus IAM2034 ([2]; value in parentheses = Partial Inhibition): 50.0 µg/mL; Partial Inhibition, Blastomyces dermatidis D40 [4, 30]: 50.0 µg/mL; MIC [11]: > 100 µg/mL; Partial Inhibition, Sprotricosis schenckii IFO8158 [12, 30]: 50.0 µg/mL; solubility at 2 h ([16]; Method II (-): PBS(-)): > 30000 µg/mL |
| CCOC(=O)CN(C)[C@@H]1[C@H](O)[C@@H](O)[C@H](O[C@H]2c3cc(C)c(C(=O)N[C@H](C)C(=O)O)c(O)c3-c3c(cc4c(c3O)C(=O)c3cc(OC)cc(O)c3C4=O)[C@@H]2O)O[C@@H]1C [Ex. 6, N-(ethoxycarbonylmethyl) pradimicin B] | – | – | – | – | – | – | – | – | – | – | – | – | – | – | – | – | 3.2 µg/mL (≈ 4.03 µM) | 6.3 µg/mL (≈ 7.93 µM) | 6.3 µg/mL (≈ 7.93 µM) | 1.6 µg/mL (≈ 2.01 µM) | MIC [21]: 1.6 µg/mL (≈ 2.01 µM); MIC [22]: 3.2 µg/mL (≈ 4.03 µM); MIC [23]: 1.6 µg/mL (≈ 2.01 µM); MIC [24]: 1.6 µg/mL (≈ 2.01 µM); MIC [25]: 12.5 µg/mL (≈ 15.7 µM); MIC [26]: 0.8 µg/mL (≈ 1.01 µM); MIC [27]: 6.3 µg/mL (≈ 7.93 µM); MIC [28]: 6.3 µg/mL (≈ 7.93 µM); solubility [29]: > 4000 µg/mL |
| COc1cc(O)c2c(c1)C(=O)c1c(cc3c(c1O)-c1c(cc(C)c(C(=O)N[C@H](C)C(=O)O)c1O)[C@H](O[C@@H]1O[C@H](C)[C@H](N(C)C=O)[C@H](O[C@@H]4OC[C@@H](O)[C@H](O)[C@H]4O)[C@H]1O)[C@H]3O)C2=O [Ex. 9, N-formyl pradimicin A] | > 100 µg/mL | 50 µg/mL (≈ 57.6 µM) | 50 µg/mL (≈ 57.6 µM) | 100 µg/mL (≈ 115 µM) | 25 µg/mL (≈ 28.8 µM) | 25 µg/mL (≈ 28.8 µM) | 25 µg/mL (≈ 28.8 µM) | 12.5 µg/mL (≈ 14.4 µM) | > 100 µg/mL | > 100 µg/mL | 50.0 µg/mL | 50 µg/mL (≈ 57.6 µM) | 25 µg/mL (≈ 28.8 µM) | 25 µg/mL (≈ 28.8 µM) | >50 mg/kg | > 32000 µg/mL | – | – | – | – | – |
| COc1cc(O)c2c(c1)C(=O)c1c(cc3c(c1O)-c1c(cc(C)c(C(=O)N[C@H](C)C(=O)O)c1O)[C@H](O[C@@H]1O[C@H](C)[C@H](N(C)C(=O)CN)[C@H](O[C@@H]4OC[C@@H](O)[C@H](O)[C@H]4O)[C@H]1O)[C@H]3O)C2=O [Ex. 10, N-glycyl pradimicin A] | > 100 µg/mL | 100 µg/mL (≈ 111 µM) | 12.5 µg/mL (≈ 13.9 µM) | 12.5 µg/mL (≈ 13.9 µM) | 12.5 µg/mL (≈ 13.9 µM) | 6.3 µg/mL (≈ 7.02 µM) | 1.6 µg/mL (≈ 1.78 µM) | 1.6 µg/mL (≈ 1.78 µM) | > 100 µg/mL | > 100 µg/mL | – | 12.5 µg/mL (≈ 13.9 µM) | 12.5 µg/mL (≈ 13.9 µM) | 12.5 µg/mL (≈ 13.9 µM) | 30 mg/kg | 1000 µg/mL (≈ 1110 µM) | – | – | – | – | – |
| COc1cc(O)c2c(c1)C(=O)c1c(cc3c(c1O)-c1c(cc(C)c(C(=O)N[C@H](C)C(=O)O)c1O)[C@H](O[C@@H]1O[C@H](C)[C@H](N(C)C(=O)CN(C)C)[C@H](O)[C@H]1O)[C@H]3O)C2=O [Ex. 15, N-(N,N-dimethylglycyl) pradimicin B] | – | – | – | – | – | – | – | – | – | – | – | – | – | – | – | – | 3.2 µg/mL (≈ 4.03 µM) | 6.3 µg/mL (≈ 7.94 µM) | 6.3 µg/mL (≈ 7.94 µM) | 1.6 µg/mL (≈ 2.02 µM) | MIC [21]: 3.2 µg/mL (≈ 4.03 µM); MIC [22]: 6.3 µg/mL (≈ 7.94 µM); MIC [23]: 3.2 µg/mL (≈ 4.03 µM); MIC [24]: 6.4 µg/mL (≈ 8.06 µM); MIC [25]: 12.5 µg/mL (≈ 15.7 µM); MIC [26]: 3.2 µg/mL (≈ 4.03 µM); MIC [27]: 12.5 µg/mL (≈ 15.7 µM); MIC [28]: 2.5 µg/mL (≈ 3.15 µM); solubility [29]: 2000 µg/mL (≈ 2520 µM) |
